The text below walks through data of patent US11304929B2, “Tosylacetate based compounds and derivatives thereof as PHGDH inhibitors” (priority 2017, dated 2022).

Each structure is given as a SMILES string. A value given as a limit tells only on which side of the number the result lay.

PHGDH, sequence (O43175 2-533 limits assumed): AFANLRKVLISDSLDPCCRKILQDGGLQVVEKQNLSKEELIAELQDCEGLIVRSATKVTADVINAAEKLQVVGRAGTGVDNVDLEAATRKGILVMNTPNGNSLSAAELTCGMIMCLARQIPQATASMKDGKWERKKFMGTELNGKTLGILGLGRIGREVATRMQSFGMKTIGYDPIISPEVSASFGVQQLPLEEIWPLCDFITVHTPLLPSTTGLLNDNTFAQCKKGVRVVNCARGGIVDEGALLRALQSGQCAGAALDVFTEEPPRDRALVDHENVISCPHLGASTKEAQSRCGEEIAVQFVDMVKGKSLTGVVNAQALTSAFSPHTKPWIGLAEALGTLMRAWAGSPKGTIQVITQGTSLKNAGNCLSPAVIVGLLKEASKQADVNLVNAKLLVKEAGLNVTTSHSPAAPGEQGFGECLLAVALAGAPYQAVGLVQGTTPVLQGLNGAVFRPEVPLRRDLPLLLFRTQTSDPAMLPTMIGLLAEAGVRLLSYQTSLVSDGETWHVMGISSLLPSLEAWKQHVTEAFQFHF

One experiment concerns the target PHGDH (Homo sapiens (Human), UniProt O43175). The experiment in a line: 3-Phosphoglycerate Dehydrogenase (PHGDH) Fluorescence Intensity Assay, run at two NAD/3-PG ratios: PHGDH_HIGH_NAD/3-PG (250 μM NAD/500 μM 3-PG) and PHGDH_500_NAD/3-PG (500 μM NAD/500 μM 3-PG). The format is biochemical. The note with it: 250 μM NAD/500 μM 3-PG; read-out: IC50 (PHGDH_HIGH_NAD/3-PG).
From the text: This assay is used to identify compounds which inhibit the enzymatic activity of PHGDH which catalyzes the reaction of 3-Phosphoglycerate (3-PG) and NAD to 3-Phosphohydroxypyruvate and NADH.
The produced NADH is used in a coupled reaction for Diaphorase mediated reduction of Resazurin to Resorufin which can be measured in a Fluorescence Intensity readout.
The full length version of PHGDH enzyme was expressed in E. coli with an N-terminal HIS-tag and a TEV cleavage site.
The 3-Phosphoglycerate substrate was purchased from Sigma. NAD, Diaphorase and Resazurin were purchased from Sigma Aldrich.
Compounds are dispensed onto assay plates (black, low volume, flat bottom 384 well, Corning) using an Access Labcyte Workstation with the Labcyte Echo 55× from a DMSO solution. For the chosen highest assay concentration of 100 μM, 150 nl of compound solution are transferred from a 10 mM DMSO compound stock solution. A series of 11 concentrations (10 1:5 steps) is transferred for each compound.
The assay has been performed at two different NAD/3-PG ratios (final assay concentrations):
Plates are kept at room temperature. After 240 minutes incubation time the fluorescence signal is measured in a PerkinElmer Envision HTS Multilabel Reader with an excitation wavelength at 530-560 nm and an emission wavelength at 590 nm.
Each plate contains negative controls (diluted DMSO instead of test compound; reaction as described with PHGDH protein) and positive controls (diluted DMSO instead of test compound; reaction as described with buffer instead of PHGDH protein). Negative and positive control values are used for normalization.
IC50 values are calculated and analyzed in the MEGALAB IC50 application using a 4 parametric logistic model.
For `C[C@@H](NC(=O)c1cc2c(Cl)cc(N3CCN(C)CC3)cc2n1C)c1ccc(S(=O)(=O)CC(=O)O)cc1` [Example 03-018, 2-{4-[(1R)-1-{[4-chloro-1-methyl-6-(4-methylpiperazin-1-yl)-1H-indol-2-yl]formamido}ethyl]benzenesulfonyl}acetic acid], the IC50 was 84 nM.
Same read-out and setting: the same measure for `C[C@@H](NC(=O)c1cc(-c2ccccc2)nn1C)c1ccc(S(=O)(=O)CC(=O)O)cc1` [Example 04-001, 2-{4-[(1R)-1-[(1-methyl-3-phenyl-1H-pyrazol-5-yl)formamido]ethyl]benzenesulfonyl}acetic acid]: 145 nM; for `C[C@@H](NC(=O)c1cc(-c2ccc(F)cc2)nn1C)c1ccc(S(=O)(=O)CC(=O)O)cc1` [Example 04-002, 2-{4-[(1R)-1-{[3-(4-fluorophenyl)-1-methyl-1H-pyrazol-5-yl]formamido}ethyl]benzenesulfonyl}acetic acid]: 76 nM.
Regarding `C[C@@H](NC(=O)c1cc(-c2cccc3cc[nH]c23)nn1C)c1ccc(S(=O)(=O)CC(=O)O)cc1` [Example 04-003, 2-{4-[(1R)-1-{[3-(1H-indol-7-yl)-1-methyl-1H-pyrazol-5-yl]formamido}ethyl]benzenesulfonyl}acetic acid], the IC50 is 53 nM.
`Cn1nc(-c2ccc(F)cc2)cc1C(=O)N[C@H](CO)c1ccc(S(=O)(=O)CC(=O)O)cc1` [Example 04-004, 2-{4-[(1S)-1-{[3-(4-fluorophenyl)-1-methyl-1H-pyrazol-5-yl]formamido}-2-hydroxyethyl]benzenesulfonyl}acetic acid]: the IC50 came out at 174 nM.
The same measure, in the same setting: the result for `COC(=O)C(C)(C)S(=O)(=O)c1ccc([C@@H](C)NC(=O)c2cc3cc(Cl)ccc3n2C)cc1` [Example 05-002, methyl 2-{4-[(1R)-1-[(5-chloro-1-methyl-1H-indol-2-yl)formamido]ethyl]benzenesulfonyl}-2-methylpropanoate] reads 33100 nM; that for `COC(=O)C(C)S(=O)(=O)c1ccc([C@@H](C)NC(=O)c2cc3cc(Cl)ccc3n2C)cc1` (stereo partly drawn) [Example 05-006, methyl 2-{4-[(1R)-1-[(5-chloro-1-methyl-1H-indol-2-yl)formamido]ethyl]benzenesulfonyl}propanoate], 3050 nM; that for `COC(=O)C(C)(C)S(=O)(=O)c1ccc([C@@H](C)NC(=O)c2cc3c(Cl)cc(C)cc3n2C)cc1` [Example 05-007, methyl 2-{4-[(1R)-1-[(4-chloro-1,6-dimethyl-1H-indol-2-yl)formamido]ethyl]benzenesulfonyl}-2-methylpropanoate], 4520 nM.
Take `COC(=O)C1(S(=O)(=O)c2ccc([C@@H](C)NC(=O)c3cc4c(Cl)cc(C)cc4n3C)cc2)CCCC1` [Example 05-008, methyl 1-{4-[(1R)-1-[(4-chloro-1,6-dimethyl-1H-indol-2-yl)formamido]ethyl]benzenesulfonyl}cyclopentane-1-carboxylate]: the IC50 stood at 18300 nM.
For `CCCC(C(=O)OC)S(=O)(=O)c1ccc([C@@H](C)NC(=O)c2cc3c(Cl)cc(C)cc3n2C)cc1` (stereo partly drawn) [Example 05-015, methyl 2-{4-[(1R)-1-[(4-chloro-1,6-dimethyl-1H-indol-2-yl)formamido]ethyl]benzenesulfonyl}pentanoate], the IC50 worked out at 3470 nM.
Turning to `CCOC(=O)C(C)(C)S(=O)(=O)c1ccc([C@@H](C)NC(=O)c2cc3c(Cl)c(Cl)c(C)nc3n2C)cc1` [Example 05-016, ethyl 2-{4-[(1R)-1-({4,5-dichloro-1,6-dimethyl-1H-pyrrolo[2,3-b]pyridin-2-yl}formamido)ethyl]benzenesulfonyl}-2-methylpropanoate], the IC50 was above 100000 nM.
Turning to `COC(=O)C(C)(C)S(=O)(=O)c1ccc([C@@H](C)NC(=O)c2cc3c(Cl)c(Cl)c(C)nc3n2C)cc1` [Example 05-020, methyl 2-{4-[(1R)-1-({4,5-dichloro-1,6-dimethyl-1H-pyrrolo[2,3-b]pyridin-2-yl}formamido)ethyl]benzenesulfonyl}-2-methylpropanoate], the IC50 was above 20000 nM.
As to `COC(=O)C1(S(=O)(=O)c2ccc([C@@H](CO)NC(=O)c3cc4c(Cl)cc(C)cc4n3C)cc2)CCOCC1` [Example 05-021, methyl 4-{4-[(1S)-1-[(4-chloro-1,6-dimethyl-1H-indol-2-yl)formamido]-2-hydroxyethyl]benzenesulfonyl}oxane-4-carboxylate], the IC50 was found to be 2450 nM.
With `COC(=O)C(C)(C)S(=O)(=O)c1ccc([C@@H](C)NC(=O)c2cc3c(Cl)c(Cl)c(C)cc3n2C)cc1` [Example 05-022, methyl 2-{4-[(1R)-1-[(4,5-dichloro-1,6-dimethyl-1H-indol-2-yl)formamido]ethyl]benzenesulfonyl}-2-methylpropanoate], the IC50 worked out at 5580 nM.
Still for that read-out and setting: the same measure for `COC(=O)C1(S(=O)(=O)c2ccc([C@@H](C)NC(=O)c3cc(-c4ccc(F)cc4)nn3C)cc2)CCCC1` [Example 06-003, methyl 1-{4-[(1R)-1-{[3-(4-fluorophenyl)-1-methyl-1H-pyrazol-5-yl]formamido}ethyl]benzenesulfonyl}cyclopentane-1-carboxylate]: 11700 nM; for `CC(C)OC(=O)C(C)S(=O)(=O)c1ccc([C@@H](C)NC(=O)c2cc(-c3ccccc3)nn2C)cc1` (stereo partly drawn) [Example 06-004, propan-2-yl 2-{4-[(1R)-1-[(1-methyl-3-phenyl-1H-pyrazol-5-yl)formamido]ethyl]benzenesulfonyl}propanoate]: 78200 nM; for `CC(C)OC(=O)C(C)(C)S(=O)(=O)c1ccc([C@@H](C)NC(=O)c2cc(-c3ccccc3)nn2C)cc1` [Example 06-005, propan-2-yl 2-methyl-2-{4-[(1R)-1-[(1-methyl-3-phenyl-1H-pyrazol-5-yl)formamido]ethyl]benzenesulfonyl}propanoate]: 15900 nM.
As to `CC(C)OC(=O)C(C)(C)S(=O)(=O)c1ccc([C@@H](CO)NC(=O)c2cc(-c3ccc(F)cc3)nn2C)cc1` [Example 06-006, propan-2-yl 2-{4-[(1S)-1-{[3-(4-fluorophenyl)-1-methyl-1H-pyrazol-5-yl]formamido}-2-hydroxyethyl]benzenesulfonyl}-2-methylpropanoate], the IC50 is 14500 nM.
Still for that read-out and setting: the same measure for `CC(C)OC(=O)C(C)S(=O)(=O)c1ccc([C@@H](CO)NC(=O)c2cc(-c3ccc(F)cc3)nn2C)cc1` (stereo partly drawn) [Example 06-007, propan-2-yl 2-{4-[(1S)-1-{[3-(4-fluorophenyl)-1-methyl-1H-pyrazol-5-yl]formamido}-2-hydroxyethyl]benzenesulfonyl}propanoate]: 29600 nM; for `COC(=O)C(C)(C)S(=O)(=O)c1ccc([C@@H](CO)NC(=O)c2cc(-c3ccc(F)cc3)nn2C)cc1` [Example 06-008, methyl 2-{4-[(1S)-1-{[3-(4-fluorophenyl)-1-methyl-1H-pyrazol-5-yl]formamido}-2-hydroxyethyl]benzenesulfonyl}-2-methylpropanoate]: 8340 nM.
For the compound `CCC(CC)(C(=O)O)S(=O)(=O)c1ccc([C@@H](C)NC(=O)c2cc3c(Cl)cc(C)cc3n2C)cc1` [Example 07-001, 2-{4-[(1R)-1-[(4-chloro-1,6-dimethyl-1H-indol-2-yl)formamido]ethyl]benzenesulfonyl}-2-ethylbutanoic acid], the IC50 came out at 10 nM.
The same measure, in the same setting: the same measure for `Cc1cc(Cl)c2cc(C(=O)N[C@H](C)c3ccc(S(=O)(=O)C(C)C(=O)O)cc3)n(C)c2c1` (stereo partly drawn) [Example 07-003, 2-{4-[(1R)-1-[(4-chloro-1,6-dimethyl-1H-indol-2-yl)formamido]ethyl]benzenesulfonyl}propanoic acid]: 8 nM.
With `Cc1cc(Cl)c2cc(C(=O)N[C@H](C)c3ccc(S(=O)(=O)C4(C(=O)O)CCCC4)cc3)n(C)c2c1` [Example 07-004, 1-{4-[(1R)-1-[(4-chloro-1,6-dimethyl-1H-indol-2-yl)formamido]ethyl]benzenesulfonyl}cyclopentane-1-carboxylic acid], the IC50 came to 6 nM.
Same read-out and setting: the result for `C[C@@H](NC(=O)c1cc2cc(Cl)ccc2n1C)c1ccc(S(=O)(=O)[C@@H](C)C(=O)O)cc1` [Example 07-006, (2S)-2-{4-[(1R)-1-[(5-chloro-1-methyl-1H-indol-2-yl)formamido]ethyl]benzenesulfonyl}propanoic acid] reads 238 nM; that for `C[C@@H](NC(=O)c1cc2cc(Cl)ccc2n1C)c1ccc(S(=O)(=O)C(C)(C)C(=O)O)cc1` [Example 07-007, 2-{4-[(1R)-1-[(5-chloro-1-methyl-1H-indol-2-yl)formamido]ethyl]benzenesulfonyl}-2-methylpropanoic acid], 209 nM.
Consider `C[C@H](C(=O)O)S(=O)(=O)c1ccc([C@@H](C)NC(=O)c2cc3cc(Cl)ccc3n2C)cc1` [Example 07-008, (2R)-2-{4-[(1R)-1-[(5-chloro-1-methyl-1H-indol-2-yl)formamido]ethyl]benzenesulfonyl}propanoic acid], for which the IC50 came out at 139 nM.
Still for that read-out and setting: the same measure for `CC(C(=O)O)S(=O)(=O)c1ccc([C@@H](C)NC(=O)c2cc3cc(Cl)ccc3n2C)cc1` (stereo partly drawn) [Example 07-009, 2-{4-[(1R)-1-[(5-chloro-1-methyl-1H-indol-2-yl)formamido]ethyl]benzenesulfonyl}propanoic acid]: 190 nM.

The same experiment, now with this note: 500 μM NAD/500 μM 3-PG; read-out: IC50 (PHGDH_500_NAD/3-PG).
As for `C[C@@H](NC(=O)c1cc2c(Cl)cc(N3CCN(C)CC3)cc2n1C)c1ccc(S(=O)(=O)CC(=O)O)cc1` [Example 03-018, 2-{4-[(1R)-1-{[4-chloro-1-methyl-6-(4-methylpiperazin-1-yl)-1H-indol-2-yl]formamido}ethyl]benzenesulfonyl}acetic acid], the IC50 came to 292 nM.
For the compound `C[C@@H](NC(=O)c1cc(-c2cccc3cc[nH]c23)nn1C)c1ccc(S(=O)(=O)CC(=O)O)cc1` [Example 04-003, 2-{4-[(1R)-1-{[3-(1H-indol-7-yl)-1-methyl-1H-pyrazol-5-yl]formamido}ethyl]benzenesulfonyl}acetic acid], the IC50 worked out at 87 nM.
Consider `Cn1nc(-c2ccc(F)cc2)cc1C(=O)N[C@H](CO)c1ccc(S(=O)(=O)CC(=O)O)cc1` [Example 04-004, 2-{4-[(1S)-1-{[3-(4-fluorophenyl)-1-methyl-1H-pyrazol-5-yl]formamido}-2-hydroxyethyl]benzenesulfonyl}acetic acid], for which the IC50 is 299 nM.
Turning to `Cc1cc2c(cc(C(=O)N[C@H](C)c3ccc(S(=O)(=O)C4CCOC4=O)cc3)n2C)c(Cl)c1Cl` (stereo partly drawn) [Example 05-023, 4,5-dichloro-1,6-dimethyl-N-[(1R)-1-{4-[(2-oxooxolan-3-yl)sulfonyl]phenyl}ethyl]-1H-indole-2-carboxamide], the IC50 came to 119 nM.
Consider `Cc1cc2c(cc(C(=O)N[C@H](C)c3ccc(S(=O)(=O)C4CCOC4=O)cc3)n2C)c(F)c1F` (stereo partly drawn) [Example 05-024, 4,5-difluoro-1,6-dimethyl-N-[(1R)-1-{4-[(2-oxooxolan-3-yl)sulfonyl]phenyl}ethyl]-1H-indole-2-carboxamide], for which the IC50 was found to be 119 nM.
The same measure, in the same setting: the result for `Cc1cc2c(cc(C(=O)N[C@H](C)c3ccc(S(=O)(=O)C4CCCOC4=O)cc3)n2C)c(Cl)c1Cl` (stereo partly drawn) [Example 05-025, 4,5-dichloro-1,6-dimethyl-N-[(1R)-1-{4-[(2-oxooxan-3-yl)sulfonyl]phenyl}ethyl]-1H-indole-2-carboxamide] reads 20 nM; that for `CCC(CC)(C(=O)O)S(=O)(=O)c1ccc([C@@H](C)NC(=O)c2cc3c(Cl)cc(C)cc3n2C)cc1` [Example 07-001, 2-{4-[(1R)-1-[(4-chloro-1,6-dimethyl-1H-indol-2-yl)formamido]ethyl]benzenesulfonyl}-2-ethylbutanoic acid], 14 nM.
